| Compound | melting point [°C] |
| --- | --- |
| Cc1sc(N)c(C(=O)c2ccc(Br)s2)c1C | 128 to 130 |
| Cc1cccc(-c2[nH]c(C(C)C)nc2-c2cccc(-c3ccncc3)c2)n1 | 84 to 86 |
| O=C(O)c1cn(C2CC2)c2nc(N3CCC(c4cccnc4)C3)c(F)cc2c1=O (configuration not stated) | 226 to 228 |
| COC(=O)C(Cc1ccccc1)NC(=O)C(CC(=O)O)NC(=O)C(N)C(C)C(=O)O (configuration not stated) | 172 to 175 |
| C=CCOc1ccc(-c2nc3cnccc3[nH]2)c(OC(C)C)c1 | 179 |
| OC(Cn1cncn1)(OCCOc1ccc(Cl)cc1Cl)c1ccc(Cl)cc1Cl (configuration not stated) | 88 to 90 |
| CC(C)(C)C1CCc2c(c3ccccc3n2CC[N+]2([O-])CCCC2)C1 (configuration not stated) | 163 to 165 |
| Cc1cccc(C)c1N(CCCC(=O)N[C@@H](C)C(=O)O)C(=O)c1ccc(Cl)cc1 | 159 to 161 |
| CN1CCN(c2ccc(C(=O)N3CCCCc4ccccc43)c(Cl)c2)CC1 | 138 to 140 |
| O=C(Nc1ccc(-n2nc(C(F)(F)F)cc2C2CC2)c(F)c1)C1(c2ccccc2)CCC1 | 72 to 76 |
| CN1CCC(=C2c3ccc(Cl)cc3C(=O)Cc3cccnc32)CC1 | 181 to 183 |
| Cc1nnc2n1-c1ccc(C#CCN3C(=O)C(=O)c4ccccc43)cc1C(c1ccccc1Cl)=NC2 | 210 to 212 |
| Cc1c(C2=NNC(=O)SC2C)ccc2c1C(C)(C)C(=O)N2 (configuration not stated) | 279 |
| COc1ccc(OC(C)c2ccnc3ncnn23)cc1 (configuration not stated) | 112 to 114 |
| COc1ccc(C2=NN(C3CCN(C(=O)c4c(Cl)cc(Cl)cc4Cl)CC3)C(=O)CC2)cc1OC | 156 to 159 |
| O=C(Nc1ccccc1)N(Cc1ccc(Br)cc1)C1CCCC1 | 130 to 132 |
| CN(c1cccc2cc(C3=NCC(C(C)(C)O)S3)[nH]c12)S(=O)(=O)c1cccs1 (configuration not stated) | 174 to 175 |
| CC(C)Cn1cnc2c(N)nc3c(c21)CCCN3 | 231 to 233 |
| COc1ccc2c(c1)c(CC(=O)NN)c(C)n2Cc1c(Cl)cccc1Cl | 194 to 196 |
| O=C(Nc1ccccc1)n1nc(-c2ccccc2)cc1Sc1ccccc1 | 138 to 140 |
| O=C(c1ccc2c(c1)[C@@H](O)[C@H](Br)CCO2)c1ccccc1C(F)(F)F (relative stereo) | 176 to 179 |
| COC(=O)c1oc(C)nc1-c1ccc2c(c1)CCCC2 | 96 to 97 |
| NC(=S)c1ccc(C(=O)NCc2ccc(N3CC(C(=O)O)OC3=O)cc2)cc1 (configuration not stated) | 105 to 110 |
| Oc1ccc2c(-c3cccnc3)coc2c1 | 167 to 168 |
| CC(C)(C)OC(=O)Nc1ccc(C#Cc2ccc(Cl)cc2)cc1[N+](=O)[O-] | 213 to 218 |
| CCOC(=O)C1=C(C)NC(C)=C(C(=O)OCC)C1c1ccccc1C=Cc1ccc(Cl)cc1 | 178 to 181 |

| Compound | melting point [°C] |
| --- | --- |
| CCCCn1c(=O)c(N)c(C)n(CCC(C)C)c1=O | 68 to 70 |
| CN(C)C(=S)SC(C[N+](=O)[O-])c1ccc(Cl)cc1Cl (configuration not stated) | 127 to 128 |
| O=C(O)CC1(CC(O)=NO)CCCCC1 | 104 |
| COc1ccc(NC(=O)c2ccc(-c3ccc(S(C)=O)cc3)c(C)c2)cc1N1CCN(C)CC1 (configuration not stated) | 210 to 212 |
| O=C(OCc1ccccc1)C1Cc2sccc2C(=O)N1Cc1ccccc1 (configuration not stated) | 72 |
| COCCNC(=O)c1ccc(-c2ccc3nnn(Cc4ccc5ncccc5c4)c3n2)cc1F | 162 to 164 |
| Cc1cc(C)c2nc(NCC3COC(C)(C)O3)n(Cc3nc(C)ccc3O)c2c1 (configuration not stated) | 225 |
| CCc1c(C)c(NC(=O)NCCO)c(C)c2c1OCC2c1ccc(C(C)C)cc1 (configuration not stated) | 147 to 148 |
| Cn1nc(C(=O)O)cc1-c1ccccc1 | 149 to 150 |
| CCCCCC(=O)Nc1nnc(C)s1 | 203 |
| O=C(NC(=O)c1c(F)cccc1F)Nc1ccc(OC(c2ccc(Cl)cc2)C2CC2)cc1 (configuration not stated) | 185 to 188 |
| O=C(O)[C@H](Cc1ccc(F)cc1)[C@@H](O)c1ccc(C(F)(F)F)cc1 (racemic) | 120 to 121 |
| CN(C)C(=O)Nc1cc(Cl)ccc1O | 164 |
| ON=Cc1c(Br)ccc2c1OCO2 | 239 to 240 |
| Oc1cc(C(F)(F)F)[nH]n1 | 211 to 215 |
| O=Cc1sc(Cl)c(Cl)c1Cl | 81 to 82 |
| COc1ccc(C=O)cc1OC1CC=CC1 | 60 to 62 |
| CC(C)NS(=O)(=O)NC(C)C | 98 to 101 |
| COC1OCC[C@@H]1NC(=O)[C@H](CC1CCCCC1)NC(=O)CNC(=O)COc1ccc2c(c1)Nc1ccccc1S2 (some centres not stated) | 179 to 180 |
| CCS(=O)CC(=O)c1ccc(-c2ccccc2F)cc1 (configuration not stated) | 91 to 93 |
| CCC(CC)(NCCCn1cnc(CCNC(=O)c2ccc(C#N)cc2)c1)c1ccccc1 | 107 to 109 |
| N#Cc1cc(Cl)c(NC(=O)C(F)(F)F)c(Cl)c1 | 134 to 136 |
| NS(=O)(=O)c1cc2cc[nH]c(=O)c2s1 | 295 to 297 |
| COc1cc(Nc2nc(O)c3c(n2)C(c2ccccc2)CN(C)C3)ccc1-n1cnc(C)c1 (configuration not stated) | 152 to 155 |
| CNc1ccc(C)cc1C(=O)Cc1nnnn1C | 141 to 143 |
| COC(=O)c1c(O)c2ccccc2n1-c1ccc(OC)cc1 | 153 to 155 |

| Compound | melting point [°C] |
| --- | --- |
| CCOC(=O)CNc1nc(C)c(C(=O)OCC)c(NC(C)CC)c1[N+](=O)[O-] (configuration not stated) | 43 to 45 |
| CC(C)CCCC(C)C1CCC2C3CC=C4CC(OCCO)CCC4(C)C3CCC12C (configuration not stated) | 92 to 95 |
| CNc1nc(Br)cn2c(Br)cnc12 | 229 |
| CC(C)c1ccccc1-n1c(=O)[nH]c2c(C(N)=O)nc(-c3ccc(-c4nc[nH]n4)cc3)nc21 | 368 |
| Cn1c(N)c(C#N)c(Cl)c1C=O | 282 to 285 |
| C#Cc1ccc2c(c1)N(c1ncnc3cc(OC)c(OC)cc13)CC2 | 241 to 243 |
| CCOC(OCC)c1ccc(C(O)(c2ccc3nc(OC)cc(-c4cccc(Cl)c4)c3c2)c2cncn2C)cc1 (configuration not stated) | 80 |
| CC(C)C(NS(=O)(=O)c1ccc(-c2ccccc2)cc1)C(=O)O (configuration not stated) | 164 to 166 |
| CCc1cccc(C)c1NC(=S)NC(C)(C)C | 94 to 96 |
| COC(=O)c1ccc([C@H](C)NC(C)=O)cc1 | 125 to 127 |
| O=C1CCCN1c1cccc(-n2cnc3cc(-c4ccoc4)cnc32)c1 | 208 to 210 |
| COc1nc(OC)c(C=CC(C)=O)c(OC)n1 | 98 to 99 |
| O=C1CCC2CCCCC2N1 (configuration not stated) | 123 to 126 |
| CCCSc1ncc(CC(NC(C)=O)C(=O)O)n1Cc1ccccc1Cl (configuration not stated) | 182 to 184 |
| CC1(C)C(=O)Oc2ccc(C#N)cc21 | 138 to 140 |
| CC(=O)Nc1nc(CCc2ccc(C(=O)NC(=N)N)cc2)c(Cc2ccc(S(C)(=O)=O)cc2)s1 | 108 to 110 |
| COC(=O)c1sc(C#N)cc1[N+](=O)[O-] | 83 to 85 |
| CCn1c(-c2ccc(OC)c(OC)c2)cc(=O)n(C)c1=O | 110 to 120 |
| NC(=O)C1CCN(Cc2cnc3cc(NC(=O)c4ccc(-c5ccc(Cl)cc5)cc4)ccc3c2)CC1 | 260 |
| CCCCNC(=O)NS(=O)(=O)c1ccccc1S(=O)(=O)C(C)C | 164 to 166 |
| COc1ccc(N2Cc3ccccc3P2(C)=O)cc1 (configuration not stated) | 148 to 150 |
| CNC(=O)C(=NOC)c1ccccc1COc1ccc(Cl)c(C(=O)OC(C)(C)C)n1 | 103 to 108 |
| CCOC(=O)CN(C(=O)C(=O)N(CC(=O)OCC)S(=O)(=O)C(F)(F)F)S(=O)(=O)C(F)(F)F | 88 to 90 |
| CCOC(=O)/C=C/c1ccc(N2CCC3(CC2)OCCO3)cc1 | 115 to 116 |
| C#CCN(Cc1ccc2nc(C)[nH]c(=O)c2c1)c1ccc(C(=O)NC(COC(C)=O)c2cccc([N+](=O)[O-])c2)cc1 (configuration not stated) | 133 to 135 |
| Cc1cc(OCc2ccccc2)c2cc(C(=O)O)[nH]c2c1 | 178 to 180 |

| Compound | melting point [°C] |
| --- | --- |
| COC(=O)c1nc(N)ccc1Oc1nc(OC)cc(OC)n1 | 67 to 69 |
| CC1=C(C(=O)OC(CN2CCCCC2)c2ccccc2)C(c2cccc([N+](=O)[O-])c2)n2nccc2N1 (configuration not stated) | 92 to 93 |
| Cc1nc(O)sc1-c1cn2cccnc2n1 | > 300 |
| COc1cc2c(Oc3cnc4[nH]ccc4c3)ncnc2cc1OCCCN1CCCC1 | 184 to 186 |
| CC(=O)Nc1cc2cc(N)ccc2oc1=O | 250 to 252 |
| COC(=O)c1ccc2c(c1)C(=O)C(Cc1cccc(C(=O)O)c1)O2 (configuration not stated) | 140 to 143 |
| CCNc1ccc(S(=O)c2ccccc2)cc1N (configuration not stated) | 140 to 142 |
| CC(=O)Nc1c(C(=O)Cc2ccccc2)[nH]c2cc(Cl)ccc12 | 258 to 259 |
| C=CCCC(C#N)(C#N)Cc1ccc(OC(C)=O)cc1 | 80.2 |
| Oc1cc(OCc2ccccc2)cc(OCc2ccccc2)c1 | 107 to 109 |
| C=CCO[C@H]1[C@@H](OCc2ccccc2)[C@@H](OCc2ccccc2)[C@H](OCc2ccccc2)[C@@H](OCc2ccccc2)[C@]1(O)CC=C (racemic) | 97.5 |
| O=Cc1ccc(C=CC(=O)N2CCc3c([nH]c4ccccc34)C2c2ccc3c(c2)OCO3)cc1 (configuration not stated) | 208 |
| CCCCCC=C1SC(=S)N(CC(=O)O)C1=O | 136 to 140 |
| COc1ccc(C2CCOCC2)c2sc(NC(=O)N(C)[C@H]3CC[C@H](O)CC3)nc12 | 160 |
| CCOC(=O)c1sc(OCC)nc1C(F)(F)F | 30.5 to 31.5 |
| CC(O)(c1ccncc1)c1cnc(-c2ccc(F)cc2)s1 (configuration not stated) | 229 to 232 |
| COCCNC(=O)c1cccc(-c2cccc3nc(Cc4cccc(C(F)(F)F)c4)sc23)c1 | 101 to 102 |
| O=C(c1ccccc1)c1c(O)c2c(C(=O)O)cccc2[nH]c1=O | > 300 |
| O=Cc1c(Cl)c(Cl)c(Cl)c(Cl)c1Cl | 201 to 203 |
| Nc1nc2c(s1)CCN(CCCCCc1ccccc1)CC2 | 102 to 105 |
| CCOC(=O)C1CN(S(=O)(=O)c2ccc3cc(Br)ccc3c2)CCN1C(=O)C1CCN(c2ccncc2)CC1 (configuration not stated) | 117 to 121 |
| C#CCOC(=O)[C@H](Cc1c[nH]cn1)NC(=O)C(Cc1cccc2ccccc12)Cc1cccc2ccccc12 | 187 to 189 |
| CN(N(C)S(C)(=O)=O)S(C)(=O)=O | 168 to 169 |
| C[C@H](NC(=O)c1cc(Cl)cnc1Oc1ccc(F)cc1)c1ccc(C(=O)O)cc1 | 198 |
